Measurements as given in ChEMBL document CHEMBL5528010, “The discovery of aryl-2-nitroethyl triamino pyrimidines as anti-Trypanosoma brucei agents” (Eur J Med Chem, 2024).

How the values were obtained:
Trypanosoma brucei [1] = assay: Antiparasitic activity against blood stream form Trypanosoma brucei assessed as parasitic growth inhibition incubated for 72 hrs by resazurin dye based fluorescence analysis; format: functional, organism-based
THP-1 = assay: Cytotoxicity against human THP-1 cells assessed as reduction in cell viability measured after 72 hrs by MTT assay; format: functional
[2] = Inhibition of N-terminal his 6 tagged recombinant Trypanosoma brucei PTR1 expressed in Escherichia coli BL21 (DE3) cells preincubated for 10 mins followed by NADPH addition and measured after 10 to 50 mins by multilabel plate reader method; format: cell-based
Pteridine reductase 1 = target: T1, Pteridine reductase 1 (Leishmania major, UniProt Q01782); assay: Inhibition of N-terminal his 6 tagged recombinant Leishmania major PTR1 expressed in Escherichia coli BL21 (DE3) cells preincubated for 10 mins followed by NADPH addition and measured after 10 to 50 mins by multilabel plate reader method
T1 sequence (Q01782 whole entry): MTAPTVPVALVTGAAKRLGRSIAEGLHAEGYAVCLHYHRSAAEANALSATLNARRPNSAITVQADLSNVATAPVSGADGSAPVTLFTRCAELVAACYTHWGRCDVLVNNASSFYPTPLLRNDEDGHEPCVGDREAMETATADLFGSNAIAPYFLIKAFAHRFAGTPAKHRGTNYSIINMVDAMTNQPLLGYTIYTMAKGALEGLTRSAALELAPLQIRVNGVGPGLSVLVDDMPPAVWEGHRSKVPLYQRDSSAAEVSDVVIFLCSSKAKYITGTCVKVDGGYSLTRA

Leishmania infantum = assay: Antiparasitic activity against Leishmania infantum intracellular amastigotes MHOM/BR/1972/BH46 infected in human THP-1 cells assessed as inhibition of parasitic growth at 50 uM pre-infected for 24 hrs followed by compound addition and measured after 48 hrs relative to control; format: functional; settings: MHOM/BR/1972/BH46, THP-1
[3] = Selectivity index, ratio of CC50 for human THP-1 cells to EC50 for bloodstream form Trypanosoma brucei; format: toxicity; settings: read-out: Ratio CC50/EC50
[4] = Tmax in BALB/c mouse at 20 mg/kg, po measured upto 24 hrs by LC-MS/MS analysis; format: ADME, organism-based; settings: in vivo
[5] = Cmax in BALB/c mouse at 20 mg/kg, po measured upto 24 hrs by LC-MS/MS analysis; format: ADME, organism-based; settings: in vivo
[6] = Half life in BALB/c mouse at 20 mg/kg, po measured upto 24 hrs by LC-MS/MS analysis; format: ADME, organism-based; settings: in vivo
[7] = AUC last in BALB/c mouse at 20 mg/kg, po measured upto 24 hrs by LC-MS/MS analysis; format: ADME, organism-based; settings: in vivo
Trypanosoma brucei [8] = assay: Antiparasitic activity against blood stream form Trypanosoma brucei assessed as parasitic growth inhibition at 10 uM incubated for 72 hrs by resazurin dye based fluorescence analysis relative to control; format: functional; design: scale not given: the % may be the effect or the level left

Row | EC50 (Trypanosoma brucei [1]) [nM] | IC50 (Pteridine reductase 1) [nM] | Tmax [4] [h] | Cmax [5] [ng/mL] | half-life [6] [h] | AUC(0-t) at 24 h [7] [ng·h/mL] | SMILES | CC50 (THP-1) [nM] | IC50 [2] [nM] | inhibition at 50 µM (Leishmania infantum) [%] | selectivity ratio [3] | Activity (Trypanosoma brucei [8]) [%]
1 | 1680 | 70700 | – | – | – | – | COc1cccc(OC)c1C(C[N+](=O)[O-])c1c(N)nc(N)nc1N (stereo not given) | 12500 | 130 | 79.8 | 7 | –
2 | 2130 | 19800 | – | – | – | – | COc1cc(C(C[N+](=O)[O-])c2c(N)nc(N)nc2N)ccc1O (stereo not given) | 50000 | 70 | 21.6 | 23 | –
3 | 2330 | 2400 | – | – | – | – | COc1ccc(C(C[N+](=O)[O-])c2c(N)nc(N)nc2N)cc1OC (stereo not given) | 25000 | 120 | 62.4 | 11 | –
4 | 2410 | – | – | – | – | – | Cc1ccc(C(C[N+](=O)[O-])c2c(N)nc(N)nc2N)s1 (stereo not given) | 100000 | 390 | 15.4 | 42 | –
5 | 1190 | 63400 | – | – | – | – | Nc1nc(N)c(C(C[N+](=O)[O-])c2cccc([N+](=O)[O-])c2)c(N)n1 (stereo not given) | 50000 | < 100 | 74.2 | 42 | –
6 | 1280 | – | – | – | – | – | Nc1nc(N)c(C(C[N+](=O)[O-])c2ccc(Cl)cc2)c(N)n1 (stereo not given) | 25000 | < 100 | – | 19 | –
7 | 400 | 51300 | 0.5 | 446 | 2.4 | 1820 | Nc1nc(N)c(C(C[N+](=O)[O-])c2ccccc2OCc2cccc(Cl)c2)c(N)n1 (stereo not given) | 12500 | 600 | 61 | 31 | –
8 | – | – | – | – | – | – | CCc1nc(N)nc(N)c1-c1ccc(Cl)cc1 [PYRIMETHAMINE] | – | 90 | – | – | –
9 | 4400 | 21300 | – | – | – | – | Nc1nc(N)c(C(C[N+](=O)[O-])c2ccc3c(c2)CCO3)c(N)n1 (stereo not given) | 50000 | 390 | 21.1 | 11 | –
10 | – | 46200 | – | – | – | – | Nc1nc(N)c(C(C[N+](=O)[O-])c2ccccc2OCc2ccccc2[N+](=O)[O-])c(N)n1 (stereo not given) | – | 260 | 11.7 | – | 48
11 | – | 13900 | – | – | – | – | Nc1nc(N)c(C(C[N+](=O)[O-])c2c[nH]c3ccccc23)c(N)n1 (stereo not given) | – | < 100 | 4 | – | 28
12 | 600 | 51300 | – | – | – | – | Nc1nc(N)c(C(C[N+](=O)[O-])c2ccccc2OCc2ccccc2)c(N)n1 (stereo not given) | > 100000 | 240 | 81.1 | > 167 | –
13 | 1210 | 47600 | 0.5 | 399 | 2.1 | 2700 | Nc1nc(N)c(C(C[N+](=O)[O-])c2cccc3c2OCO3)c(N)n1 (stereo not given) | 12500 | 30 | 36 | 10 | –
14 | 820 | 60200 | – | – | – | – | Nc1nc(N)c(C(C[N+](=O)[O-])c2ccc(Cl)c(Cl)c2)c(N)n1 (stereo not given) | 25000 | 150 | 53.9 | 31 | –
15 | 340 | 49700 | 2 | 63 | 3 | 435 | Nc1nc(N)c(C(C[N+](=O)[O-])c2ccc(OCc3ccc(Cl)c(Cl)c3)cc2)c(N)n1 (stereo not given) | 50000 | 220 | 11.4 | 147 | –
16 | 5050 | 63800 | – | – | – | – | Nc1nc(N)c(C(C[N+](=O)[O-])c2ccco2)c(N)n1 (stereo not given) | 50000 | 160 | – | 10 | –
17 | 650 | 58100 | – | – | – | – | Nc1nc(N)c(C(C[N+](=O)[O-])c2cccc(Br)c2)c(N)n1 (stereo not given) | 50000 | 50 | 30.2 | 118 | –
18 | 1590 | 64100 | – | – | – | – | Nc1nc(N)c(C(C[N+](=O)[O-])c2ccc(Br)cc2)c(N)n1 (stereo not given) | 25000 | < 100 | 83.4 | 16 | –
19 | 1110 | 2500 | 1 | 25 | 4.5 | 107 | Nc1nc(N)c(C(C[N+](=O)[O-])c2ccc3c(c2)OCCO3)c(N)n1 (stereo not given) | 12500 | 230 | 54.4 | 11 | –
20 | 500 | – | – | – | – | – | Nc1nc(N)c(C(C[N+](=O)[O-])c2ccc3c(c2)OCO3)c(N)n1 (stereo not given) | 25000 | 250 | – | 50 | –
21 | – | – | – | – | – | – | CCCCCCCCCCCCCCCCOP(=O)([O-])OCC[N+](C)(C)C [MILTEFOSINE] | – | – | 1.29 | – | –
22 | 3330 | 4900 | – | – | – | – | Nc1nc(N)c(C(C[N+](=O)[O-])c2cccs2)c(N)n1 (stereo not given) | 50000 | 190 | 22.5 | 15 | –

Row | SMILES | EC50 (Trypanosoma brucei [1]) [nM] | IC50 (Pteridine reductase 1) [nM] | Tmax [4] [h] | Cmax [5] [ng/mL] | half-life [6] [h] | AUC(0-t) at 24 h [7] [ng·h/mL] | CC50 (THP-1) [nM] | IC50 [2] [nM] | inhibition at 50 µM (Leishmania infantum) [%] | selectivity ratio [3] | Activity (Trypanosoma brucei [8]) [%]
23 | Nc1cc(N)nc(N)n1 | – | 4010 | – | – | – | – | – | 2380 | – | – | –
